In patent US12064399B2, “Use of cannabinoids in the treatment of epilepsy” (Jazz Pharmaceuticals Research UK Limited, priority 2015, dated 2024):

Key:
total seizures = experiment: Expanded access compassionate use program: 50% responders for total seizures, all subjects; format: in vivo, human; conditions: proportion of all subjects treated; 12 weeks of treatment
Description: The terms “50% responder” and “50% reduction in seizure” are both terms used in clinical studies. In the present application the terms define the percentage of subjects that experienced a greater than or equal to 50% reduction in the number of seizures during treatment with CBD in comparison to the number experienced during the baseline period before the CBD was administered.
Of 137 children and young adults with severe, childhood onset treatment-resistant epilepsy (TRE), fifty-one suffered from epilepsy that was characterised by focal seizures. These subjects were tested with a highly purified extract of cannabidiol (CBD) obtained from a Cannabis plant. All subjects presented with focal type seizures, often in addition to generalised seizures. The participants in the study were part of an expanded access compassionate use program for CBD.
All patients entered a baseline period of 4 weeks when parents/caregivers kept prospective seizure diaries, noting all countable seizure types.
The patients then received a highly purified CBD extract (greater than 98% CBD w/w) in sesame oil, of known and constant composition, at a dose of 5 mg/kg/day in addition to their baseline anti-epileptic drug (AED) regimen.

[1] = tested on: focal seizures without impairment; experiment: Expanded access compassionate use program: 50% responders for focal seizures without impairment; format: in vivo, human; conditions: proportion of patients; 12 weeks of treatment
[2] = tested on: focal seizures leading to secondary generalisation; experiment: Expanded access compassionate use program: 50% responders for focal seizures leading to secondary generalisation; format: in vivo, human; conditions: proportion of patients; 12 weeks of treatment
absence seizures = experiment: Patients with greater than 50% reduction of absence seizures under CBD; format: in vivo, human; conditions: treatment with CBD
[3] = tested on: myoclonic absence seizures; experiment: Patients with greater than 50% reduction of myoclonic absence seizures under CBD; format: in vivo, human; conditions: treatment with CBD
[4] = Solubility of the drug substance in water; format: physicochemical
seizures [5] = conditions: mice; after administration of pro-convulsant drugs or an electric current; cited from earlier work
generalized epilepsy = conditions: of eight adult patients with generalized epilepsy; cited from earlier work
seizures [6] = conditions: 200 mg/day of pure CBD; four adult patients; cited from earlier work
seizures [7] = conditions: 200 mg day of pure CBD; twelve institutionalized adult patients; open label; cited from earlier work
refractory epilepsy = conditions: Press et al.; parental reporting; cited from earlier work
seizures [8] = conditions: Consroe et al., 1977; cited from earlier work

Compound | <50% reduction in seizures, Total seizures (n = 137) (total seizures) | <50% reduction in seizures, Focal Seizures without Impairment (n = 6) [1] | >50% reduction in seizures, Focal Seizures without Impairment (n = 6) [1] | <50% reduction in seizures, Focal Seizures Leading to Secondary Generalised (n = 15) [2] | >50% reduction in seizures, Focal Seizures Leading to Secondary Generalised (n = 15) [2] | proportion of patients with greater than 50% reduction of absence seizures (absence seizures) | proportion of patients with greater than 50% reduction of myoclonic absence seizures [3] | solubility in water [4] | prevention of seizures (seizures [5]) | patients with marked reduction of seizures (generalized epilepsy) | patients who became seizure free (seizures [6]) | control of seizures (seizures [7]) | responder rate by OCE type (refractory epilepsy) | effect on seizures (seizures [8])
C=C(C)[C@@H]1CCC(C)=C[C@H]1c1c(O)cc(CCCCC)cc1O [CBD, Cannabidiol] | 54% (n = 74) | 50% | 50% | 53% | 47% | 64% | 75% | insoluble | able to prevent seizures | 4 | two of the four patients became seizure free | ineffective | 35% | –
CCCCCc1cc(O)c2c(c1)OC(C)(C)[C@@H]1CCC(C)=C[C@@H]21 [THC, Tetrahydrocannabinol] | – | – | – | – | – | – | – | – | – | – | – | – | – | pro-convulsant
